Among the data in patent US20250235460A1, “COMBINATION THERAPY USING GLUCOSE-DEPENDENT INSULINOTROPIC POLYPEPTIDE RECEPTOR ANTAGONIST COMPOUNDS AND GLP-1 RECEPTOR AGONIST COMPOUNDS” (Pfizer Inc., priority 2024, published 2025) are EC50 and Emax values, retold here.

SMILES strings stand for the structures. pEC50: −log10 of the molar value. Counter-ions that a name gives are not always drawn. Bounds are passed on as bounds.

Assay [1] has as its target human GLP-1R (Homo sapiens, UniProt P43220, G168S). As to the kind of experiment: CHO GLP-1R Clone H6 cAMP HTRF agonist assay (Assay 1, high receptor density). It is filed as cell-based. Conditions: for pEC50: geometric mean; for Emax: CHO GLP-1R clone H6, arithmetic mean, relative to saturating GLP-1 (1 μM), read-out: Assay 1 Emax (%). The method, boiled down: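 From replicate determinations, mean EC50 (geometric) and mean Emax (arithmetic) were derived and expressed to two significant figures.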
On the technique in general: TR-FRET usually uses a lanthanide donor and a delayed reading to cut background.

The target in assay [2] is human GLP-1R (Homo sapiens, UniProt P43220, L260F). As to the kind of experiment: CHO GLP-1R Clone C6 cAMP HTRF agonist assay (Assay 2, low receptor density). Type of assay: cell-based. Conditions: for pEC50: geometric mean; for Emax: CHO GLP-1R clone C6, arithmetic mean, relative to saturating GLP-1 (1 μM). An excerpt: In Table 5 and Table 6, assay data are presented to two (2) significant figures as the geometric mean (EC50s) and arithmetic mean (Emax) based on the number of replicates listed (Number). A blank cell means there was no data for that Example or the Emax was not calculated.
Chain of human GLP-1R (Homo sapiens, UniProt P43220, L260F) (P43220 24-463 L260F): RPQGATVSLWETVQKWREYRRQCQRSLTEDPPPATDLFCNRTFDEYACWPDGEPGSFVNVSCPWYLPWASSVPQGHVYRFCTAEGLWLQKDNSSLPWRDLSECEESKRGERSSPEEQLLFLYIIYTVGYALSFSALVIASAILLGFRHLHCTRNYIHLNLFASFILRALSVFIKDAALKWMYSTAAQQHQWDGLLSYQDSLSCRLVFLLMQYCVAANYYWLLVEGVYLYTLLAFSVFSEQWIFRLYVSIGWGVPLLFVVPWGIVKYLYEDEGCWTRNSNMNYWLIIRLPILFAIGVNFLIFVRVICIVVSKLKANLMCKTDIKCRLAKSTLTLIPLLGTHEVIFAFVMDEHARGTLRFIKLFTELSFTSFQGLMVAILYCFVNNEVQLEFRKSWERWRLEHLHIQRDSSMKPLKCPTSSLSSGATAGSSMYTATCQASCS

Chain of human GLP-1R (Homo sapiens, UniProt P43220, G168S) (P43220 24-463 G168S): as the sequence (P43220 24-463 L260F) above, with G145S, F237L counted along it

The term pEC50 denotes −log10 of the EC50, conventionally taken in molar units. For orientation: Emax means the maximal effect, on the per cent scale that the assay sets. For `COCCn1c(CN2CCC(c3cccc(OCc4ccc(Cl)cc4F)n3)CC2)nc2ncc(C(=O)O)c(C)c21` [Compound 208B, 2-[(4-{6-[(4-chloro-2-fluorobenzyl)oxy]pyridin-2-yl}piperidin-1-yl)methyl]-1-(2-methoxyethyl)-7-methyl-1H-imidazo[4,5-b]pyridine-6-carboxylic acid], the pEC50 is 8.77 on human GLP-1R [1] (CHO GLP-1R clone H6, cAMP HTRF) and 7.39 at human GLP-1R [2] (CHO GLP-1R clone C6, cAMP HTRF). The Emax at human GLP-1R [1] worked out at 82%; at human GLP-1R [2], 99%.
For `C[C@H]1CN(c2cccc(OCc3ccc(C#N)cc3F)n2)CCN1Cc1nc2ccc(C(=O)O)cc2n1CC1CCCO1` (stereo partly drawn) [Compound 364B, 2-{[(2S)-4-{6-[(4-cyano-2-fluorobenzyl)oxy]pyridin-2-yl}-2-methylpiperazin-1-yl]methyl}-1-(tetrahydrofuran-2-ylmethyl)-1H-benzimidazole-6-carboxylic acid], the pEC50 at human GLP-1R [1] (CHO GLP-1R clone H6, cAMP HTRF) is 8.85; at human GLP-1R [2] (CHO GLP-1R clone C6, cAMP HTRF), 7.70.
In the case of `CN1CCCC1CCn1c(CN2CCC(c3cccc(OCc4ccc(Cl)cc4F)n3)CC2)nc2ccc(C(=O)O)cc21` (stereo not drawn) [Compound 284B, 2-[(4-{6-[(4-chloro-2-fluorobenzyl)oxy]pyridin-2-yl}piperidin-1-yl)methyl]-1-[2-(1-methylpyrrolidin-2-yl)ethyl]-1H-benzimidazole-6-carboxylic acid], the pEC50 on human GLP-1R [1] (CHO GLP-1R clone H6, cAMP HTRF) was 7.74; at human GLP-1R [2] (CHO GLP-1R clone C6, cAMP HTRF), 6.57. In addition, the Emax came to 82% on human GLP-1R [1] and 83% on human GLP-1R [2].
In the case of `Cc1cc(Cn2c(CN3CCC(c4cccc(OCc5ccc(Cl)cc5F)n4)CC3)nc3ccc(C(=O)O)cc32)[nH]n1` [Compound 333B, 2-[(4-{6-[(4-chloro-2-fluorobenzyl)oxy]pyridin-2-yl}piperidin-1-yl)methyl]-1-[(3-methyl-1H-pyrazol-5-yl)methyl]-1H-benzimidazole-6-carboxylic acid], the pEC50 on human GLP-1R [1] (CHO GLP-1R clone H6, cAMP HTRF) is 9.15; at human GLP-1R [2] (CHO GLP-1R clone C6, cAMP HTRF), 8.00. The Emax amounted to 86% at human GLP-1R [1] and 89% on human GLP-1R [2].
For `C[C@H]1CN(c2cccc(OCc3ccc(C#N)cc3F)n2)CCN1Cc1nc2ccc(C(=O)O)cc2n1C[C@@H]1CCO1` [Compound 115B, 2-{[(2S)-4-{6-[(4-cyano-2-fluorobenzyl)oxy]pyridin-2-yl}-2-methylpiperazin-1-yl]methyl}-1-[(2S)-oxetan-2-ylmethyl]-1H-benzimidazole-6-carboxylic acid], in that order: 9.02, 7.77, 92% and 120%.
For `O=C(O)c1ccc2nc(CN3CCC(c4cccc(OCc5ccc(Cl)cc5F)n4)CC3)n(CCN3CCCC3=O)c2c1` [Compound 239B, 2-[(4-{6-[(4-chloro-2-fluorobenzyl)oxy]pyridin-2-yl}piperidin-1-yl)methyl]-1-[2-(2-oxopyrrolidin-1-yl)ethyl]-1H-benzimidazole-6-carboxylic acid], in that order: 8.92, 7.62, 84% and 98%.
For the molecule `COCCn1c(CN2CCN(c3cccc(OCc4ccc(Cl)cc4F)n3)C[C@@H]2CO)nc2ccc(C(=O)O)cc21` [Compound 354B, 2-{[(2R)-4-{6-[(4-chloro-2-fluorobenzyl)oxy]pyridin-2-yl}-2-(hydroxymethyl)piperazin-1-yl]methyl}-1-(2-methoxyethyl)-1H-benzimidazole-6-carboxylic acid], the pEC50 at human GLP-1R [1] (CHO GLP-1R clone H6, cAMP HTRF) is 7.03; at human GLP-1R [2] (CHO GLP-1R clone C6, cAMP HTRF), 5.82. The maximal response (Emax) was found to be 78% at human GLP-1R [1] and 69% at human GLP-1R [2].
For `Cc1nnc(Cn2c(CN3CCC(c4cccc(OCc5ccc(Cl)cc5F)n4)CC3)nc3ccc(C(=O)O)cc32)o1` [Compound 254B, 2-[(4-{6-[(4-chloro-2-fluorobenzyl)oxy]pyridin-2-yl}piperidin-1-yl)methyl]-1-[(5-methyl-1,3,4-oxadiazol-2-yl)methyl]-1H-benzimidazole-6-carboxylic acid], in that order: 8.30, 7.14, 65% and 87%.
Turning to `O=C(O)c1ccc2nc(CN3CCC(c4cccc(OCc5ccc(Cl)cc5F)n4)CC3)n(C[C@@H]3CCO3)c2n1` [Compound 122B, 2-[(4-{6-[(4-chloro-2-fluorobenzyl)oxy]pyridin-2-yl}piperidin-1-yl)methyl]-3-[(2S)-oxetan-2-ylmethyl]-3H-imidazo[4,5-b]pyridine-5-carboxylic acid], the pEC50 at human GLP-1R [1] (CHO GLP-1R clone H6, cAMP HTRF) is 8.82; at human GLP-1R [2] (CHO GLP-1R clone C6, cAMP HTRF), 7.85. The Emax at human GLP-1R [1] is 86%; on human GLP-1R [2], 82%.
For `Cn1c(CN2CCC(c3cccc(OCc4ccc(Cl)cc4)n3)CC2)nc2ccc(C(=O)O)cc21` [Compound 225B, 2-[(4-{6-[(4-chlorobenzyl)oxy]pyridin-2-yl}piperidin-1-yl)methyl]-1-methyl-1H-benzimidazole-6-carboxylic acid], in that order: 7.92, 6.85, 75% and 82%.
For `COCCn1c(CN2CCN(c3cccc(OCc4ccc(Cl)cc4F)n3)C[C@@H]2C(C)C)nc2ccc(C(=O)O)cc21` [Compound 351B, 2-{[(2S)-4-{6-[(4-chloro-2-fluorobenzyl)oxy]pyridin-2-yl}-2-(propan-2-yl)piperazin-1-yl]methyl}-1-(2-methoxyethyl)-1H-benzimidazole-6-carboxylic acid], in that order: 8.28, 6.92, 66% and 80%.
As to `C[C@H]1CN(c2cccc(OCc3ccc(Cl)cc3F)n2)CCN1Cc1nc2ccc(C(=O)O)cc2n1C[C@@H]1CCO1` [Compound 135B, 2-{[(2S)-4-{6-[(4-chloro-2-fluorobenzyl)oxy]pyridin-2-yl}-2-methylpiperazin-1-yl]methyl}-1-[(2S)-oxetan-2-ylmethyl]-1H-benzimidazole-6-carboxylic acid], the pEC50 at human GLP-1R [1] (CHO GLP-1R clone H6, cAMP HTRF) was 6.59; at human GLP-1R [2] (CHO GLP-1R clone C6, cAMP HTRF) it was 5.25. Besides, the Emax worked out at 88% on human GLP-1R [1] and 86% on human GLP-1R [2].
The corresponding values for `O=C(O)c1ccc2nc(CN3CCC(c4cccc(OCc5ccc(Cl)cc5F)n4)CC3)n(C[C@@H]3CCO3)c2c1` [Compound 107B, 2-[(4-{6-[(4-chloro-2-fluorobenzyl)oxy]pyridin-2-yl}piperidin-1-yl)methyl]-1-[(2S)-oxetan-2-ylmethyl]-1H-benzimidazole-6-carboxylic acid] are 7.09, 6.04, 77% and 94%.
For `COC1CCN(CCn2c(CN3CCC(c4cccc(OCc5ccc(Cl)cc5F)n4)CC3)nc3ccc(C(=O)O)cc32)CC1` [Compound 331B, 2-[(4-{6-[(4-chloro-2-fluorobenzyl)oxy]pyridin-2-yl}piperidin-1-yl)methyl]-1-[2-(4-methoxypiperidin-1-yl)ethyl]-1H-benzimidazole-6-carboxylic acid], in that order: 7.20, 5.70, 78% and 82%.
On to `C[C@H]1CN(c2cccc(OCc3ccc(C#N)cc3)n2)CCN1Cc1nc2ccc(C(=O)O)cc2n1CC1CCCO1` (stereo partly drawn) [Compound 362B, 2-{[(2S)-4-{6-[(4-cyanobenzyl)oxy]pyridin-2-yl}-2-methylpiperazin-1-yl]methyl}-1-(tetrahydrofuran-2-ylmethyl)-1H-benzimidazole-6-carboxylic acid], for which the pEC50 on human GLP-1R [1] (CHO GLP-1R clone H6, cAMP HTRF) was 7.92; on human GLP-1R [2] (CHO GLP-1R clone C6, cAMP HTRF), 6.57. On human GLP-1R [1], the Emax came out at 64%.
Consider `O=C(O)c1ccc2nc(CN3CCC(c4cccc(OCc5ccc(Cl)cc5F)n4)CC3)n(Cc3cc[nH]n3)c2c1` [Compound 299B, 2-[(4-{6-[(4-chloro-2-fluorobenzyl)oxy]pyridin-2-yl}piperidin-1-yl)methyl]-1-(1H-pyrazol-3-ylmethyl)-1H-benzimidazole-6-carboxylic acid], for which the pEC50 on human GLP-1R [1] (CHO GLP-1R clone H6, cAMP HTRF) is 6.96; on human GLP-1R [2] (CHO GLP-1R clone C6, cAMP HTRF), 5.66. At human GLP-1R [1], the Emax turned out to be 79%.
On to `O=C(O)c1cc2c(cn1)nc(CN1CCC(c3cccc(OCc4ccc(Cl)cc4F)n3)CC1)n2C[C@@H]1CCO1` [Compound 203B, 2-[(4-{6-[(4-chloro-2-fluorobenzyl)oxy]pyridin-2-yl}piperidin-1-yl)methyl]-1-[(2S)-oxetan-2-ylmethyl]-1H-imidazo[4,5-c]pyridine-6-carboxylic acid], for which the pEC50 is below 4.82 on human GLP-1R [1] (CHO GLP-1R clone H6, cAMP HTRF) and below 4.70 on human GLP-1R [2] (CHO GLP-1R clone C6, cAMP HTRF). The Emax at human GLP-1R [1] came to 98%.
Consider `COCCn1c(C2CC23CCC(c2cccc4c2OC(C)(c2ccc(Cl)cc2F)O4)CC3)nc2ccc(C(=O)O)cc21` (stereo not drawn) [Compound 29B, 2-{6-[2-(4-chloro-2-fluorophenyl)-2-methyl-1,3-benzodioxol-4-yl]-6-azaspiro[2.5]oct-1-yl}-1-(2-methoxyethyl)-1H-benzimidazole-6-carboxylic acid, DIAST-Z2, trifluoroacetate salt], for which the negative logarithm of the EC50 (pEC50) on human GLP-1R [1] (CHO GLP-1R clone, cAMP HTRF) was below 4.70; on human GLP-1R [2] (CHO GLP-1R clone, low receptor density, cAMP HTRF) it was below 4.70.
With `CN1CCC(Cn2c(CN3CCC(c4cccc(OCc5ccc(Cl)cc5F)n4)CC3)nc3ccc(C(=O)O)cc32)CC1` [Compound 283B, 2-[(4-{6-[(4-chloro-2-fluorobenzyl)oxy]pyridin-2-yl}piperidin-1-yl)methyl]-1-[(1-methylpiperidin-4-yl)methyl]-1H-benzimidazole-6-carboxylic acid], the pEC50 at human GLP-1R [1] (CHO GLP-1R clone H6, cAMP HTRF) was 7.82; on human GLP-1R [2] (CHO GLP-1R clone C6, cAMP HTRF), 6.57. Moreover, the Emax at human GLP-1R [1] came out at 83%; on human GLP-1R [2], 88%.
